# Laboratory results published in ChEMBL document CHEMBL1201862, “PubChem BioAssay data set” (2004).
# The source made the active and inactive calls.
# Tests used:
# [1] = microbe, parasite or virus in culture; assay type: functional; details: Mycobacterium tuberculosis
# [2] = test system: Streptococcus sp. 'group A'; test: growth inhibition of control SK(-) GAS strain, dose response, counter-screen for streptokinase expression inhibitor project, luminescence, kanamycin, BacTiterGlo, confirmation (AID 1900); assay type: functional, organism-based
# [3] = molecular target: Neurotensin receptor type 1 (Homo sapiens, UniProt P30989); assay type: functional;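 also: Image-based confirmatory dose-response assay measuring agonist activity at NTR1; NTR1-expressing U2OS osteosarcoma cells imaged for beta-arrestin GFP spot formation; agonist potency where compounds increase beta-arrestin recruitment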
# Chain of Neurotensin receptor type 1 (P30989 whole entry): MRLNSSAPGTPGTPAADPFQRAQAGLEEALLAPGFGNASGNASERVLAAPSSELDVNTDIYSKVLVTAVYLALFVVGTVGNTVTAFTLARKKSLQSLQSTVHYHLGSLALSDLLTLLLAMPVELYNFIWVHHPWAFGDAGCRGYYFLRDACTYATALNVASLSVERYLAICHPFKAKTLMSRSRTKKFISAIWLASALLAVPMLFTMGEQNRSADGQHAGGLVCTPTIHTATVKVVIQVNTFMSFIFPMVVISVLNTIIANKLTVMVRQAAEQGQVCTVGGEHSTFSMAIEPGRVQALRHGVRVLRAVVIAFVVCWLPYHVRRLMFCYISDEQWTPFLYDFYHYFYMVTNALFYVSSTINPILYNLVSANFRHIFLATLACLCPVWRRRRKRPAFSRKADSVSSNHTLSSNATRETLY
# [4] = molecular target: Glucose-6-phosphate 1-dehydrogenase (Homo sapiens, UniProt P11413); test: human G6PD enzyme inhibitors, dose response, selectivity assay for P. falciparum G6PD inhibitor project, biochemical, fluorescence (AID 504792); assay type: functional
# Chain of Glucose-6-phosphate 1-dehydrogenase (P11413 whole entry): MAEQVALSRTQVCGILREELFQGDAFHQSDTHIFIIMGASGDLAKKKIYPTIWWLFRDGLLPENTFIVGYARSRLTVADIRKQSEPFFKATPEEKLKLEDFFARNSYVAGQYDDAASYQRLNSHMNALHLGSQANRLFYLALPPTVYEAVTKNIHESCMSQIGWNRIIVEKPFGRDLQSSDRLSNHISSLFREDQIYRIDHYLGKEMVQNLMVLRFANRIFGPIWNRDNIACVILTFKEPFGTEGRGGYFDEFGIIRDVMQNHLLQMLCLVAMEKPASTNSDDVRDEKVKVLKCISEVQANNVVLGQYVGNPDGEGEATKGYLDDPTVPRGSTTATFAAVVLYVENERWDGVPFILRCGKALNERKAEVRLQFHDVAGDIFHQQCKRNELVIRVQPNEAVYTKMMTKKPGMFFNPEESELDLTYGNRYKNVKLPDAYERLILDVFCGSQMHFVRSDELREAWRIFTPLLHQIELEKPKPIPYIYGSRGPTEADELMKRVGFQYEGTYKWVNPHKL
# Streptokinase A = molecular target: T1, Streptokinase A (Streptococcus pyogenes serotype M1, UniProt P10520); test: S. pyogenes streptokinase expression inhibitors, potency, dose response, plasminogen activation absorbance, OD405 (AID 1914); assay type: functional, Streptococcus pyogenes M1 GAS;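 also: secreted streptokinase activity via plasminogen activation per viability signal from cell pellet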
# T1 sequence (P10520 whole entry): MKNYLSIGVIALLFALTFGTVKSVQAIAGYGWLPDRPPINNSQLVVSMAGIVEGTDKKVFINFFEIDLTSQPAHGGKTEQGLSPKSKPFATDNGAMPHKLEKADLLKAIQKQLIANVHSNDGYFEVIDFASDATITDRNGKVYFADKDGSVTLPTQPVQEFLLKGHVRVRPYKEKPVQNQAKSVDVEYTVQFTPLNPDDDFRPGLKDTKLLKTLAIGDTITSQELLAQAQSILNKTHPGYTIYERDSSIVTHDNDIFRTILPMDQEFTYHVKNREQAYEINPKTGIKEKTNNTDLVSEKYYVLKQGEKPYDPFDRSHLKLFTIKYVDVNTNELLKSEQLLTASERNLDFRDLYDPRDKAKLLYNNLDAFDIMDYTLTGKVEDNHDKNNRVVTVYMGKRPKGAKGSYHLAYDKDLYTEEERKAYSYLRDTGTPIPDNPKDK
# HEK293 = test: inhibitors of LMP1-driven NF-kB reporter, dose response, cell-based, HEK293, luciferase, cherry-pick (AID 588343); assay type: functional; details: Homo sapiens
# Streptococcus = test: Group A Streptococcus viability loss, dose response, counter-screen for streptokinase expression inhibitor project, luminescence, BacTiterGlo (AID 1915); assay type: functional, organism-based;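 also: potency for reduction of bacterial viability or growth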
# [5] = molecular target: Voltage-gated inwardly rectifying potassium channel KCNH2 (Homo sapiens, UniProt Q12809); details: Potency;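 also: confirmatory quantitative high-throughput screen measuring inhibition of hERG channel activity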
# Chain of Voltage-gated inwardly rectifying potassium channel KCNH2 (Q12809 whole entry): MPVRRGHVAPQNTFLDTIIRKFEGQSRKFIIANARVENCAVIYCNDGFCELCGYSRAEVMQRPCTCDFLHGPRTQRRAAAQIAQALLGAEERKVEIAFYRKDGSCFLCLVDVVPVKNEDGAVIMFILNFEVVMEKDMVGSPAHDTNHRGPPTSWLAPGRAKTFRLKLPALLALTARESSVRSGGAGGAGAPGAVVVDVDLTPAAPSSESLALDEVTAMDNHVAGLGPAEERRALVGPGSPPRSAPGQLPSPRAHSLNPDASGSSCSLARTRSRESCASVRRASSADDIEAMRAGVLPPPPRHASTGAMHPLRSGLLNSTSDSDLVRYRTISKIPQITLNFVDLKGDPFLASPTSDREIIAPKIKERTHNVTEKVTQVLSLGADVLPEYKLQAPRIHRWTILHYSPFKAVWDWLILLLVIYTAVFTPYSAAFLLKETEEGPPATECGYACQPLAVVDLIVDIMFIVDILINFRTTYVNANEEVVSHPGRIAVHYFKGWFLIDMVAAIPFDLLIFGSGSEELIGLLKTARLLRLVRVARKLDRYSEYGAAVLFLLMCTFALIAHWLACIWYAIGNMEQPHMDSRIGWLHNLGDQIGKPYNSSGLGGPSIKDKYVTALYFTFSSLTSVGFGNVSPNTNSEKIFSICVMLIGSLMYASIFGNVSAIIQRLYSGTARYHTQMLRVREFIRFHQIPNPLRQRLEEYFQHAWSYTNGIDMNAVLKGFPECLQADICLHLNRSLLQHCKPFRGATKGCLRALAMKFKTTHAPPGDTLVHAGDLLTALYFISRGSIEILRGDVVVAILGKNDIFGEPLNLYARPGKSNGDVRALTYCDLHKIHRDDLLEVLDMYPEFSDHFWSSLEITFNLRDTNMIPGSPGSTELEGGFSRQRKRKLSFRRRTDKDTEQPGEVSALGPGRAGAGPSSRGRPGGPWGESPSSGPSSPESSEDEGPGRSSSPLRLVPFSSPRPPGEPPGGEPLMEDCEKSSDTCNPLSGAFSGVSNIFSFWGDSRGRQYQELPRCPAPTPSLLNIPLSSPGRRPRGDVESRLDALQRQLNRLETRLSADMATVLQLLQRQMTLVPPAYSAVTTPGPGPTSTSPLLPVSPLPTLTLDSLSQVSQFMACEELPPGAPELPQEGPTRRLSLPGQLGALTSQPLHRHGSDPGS
# Vero [6] = test: Vero cell cytotoxicity, cytotoxicity control for flavivirus capping enzyme inhibitors (AID 588742); assay type: functional; details: Chlorocebus sabaeus
# [7] = molecular target: T2, Apoptotic protease-activating factor 1 (Homo sapiens, UniProt O14727); assay type: functional
# T2 sequence (O14727 whole entry): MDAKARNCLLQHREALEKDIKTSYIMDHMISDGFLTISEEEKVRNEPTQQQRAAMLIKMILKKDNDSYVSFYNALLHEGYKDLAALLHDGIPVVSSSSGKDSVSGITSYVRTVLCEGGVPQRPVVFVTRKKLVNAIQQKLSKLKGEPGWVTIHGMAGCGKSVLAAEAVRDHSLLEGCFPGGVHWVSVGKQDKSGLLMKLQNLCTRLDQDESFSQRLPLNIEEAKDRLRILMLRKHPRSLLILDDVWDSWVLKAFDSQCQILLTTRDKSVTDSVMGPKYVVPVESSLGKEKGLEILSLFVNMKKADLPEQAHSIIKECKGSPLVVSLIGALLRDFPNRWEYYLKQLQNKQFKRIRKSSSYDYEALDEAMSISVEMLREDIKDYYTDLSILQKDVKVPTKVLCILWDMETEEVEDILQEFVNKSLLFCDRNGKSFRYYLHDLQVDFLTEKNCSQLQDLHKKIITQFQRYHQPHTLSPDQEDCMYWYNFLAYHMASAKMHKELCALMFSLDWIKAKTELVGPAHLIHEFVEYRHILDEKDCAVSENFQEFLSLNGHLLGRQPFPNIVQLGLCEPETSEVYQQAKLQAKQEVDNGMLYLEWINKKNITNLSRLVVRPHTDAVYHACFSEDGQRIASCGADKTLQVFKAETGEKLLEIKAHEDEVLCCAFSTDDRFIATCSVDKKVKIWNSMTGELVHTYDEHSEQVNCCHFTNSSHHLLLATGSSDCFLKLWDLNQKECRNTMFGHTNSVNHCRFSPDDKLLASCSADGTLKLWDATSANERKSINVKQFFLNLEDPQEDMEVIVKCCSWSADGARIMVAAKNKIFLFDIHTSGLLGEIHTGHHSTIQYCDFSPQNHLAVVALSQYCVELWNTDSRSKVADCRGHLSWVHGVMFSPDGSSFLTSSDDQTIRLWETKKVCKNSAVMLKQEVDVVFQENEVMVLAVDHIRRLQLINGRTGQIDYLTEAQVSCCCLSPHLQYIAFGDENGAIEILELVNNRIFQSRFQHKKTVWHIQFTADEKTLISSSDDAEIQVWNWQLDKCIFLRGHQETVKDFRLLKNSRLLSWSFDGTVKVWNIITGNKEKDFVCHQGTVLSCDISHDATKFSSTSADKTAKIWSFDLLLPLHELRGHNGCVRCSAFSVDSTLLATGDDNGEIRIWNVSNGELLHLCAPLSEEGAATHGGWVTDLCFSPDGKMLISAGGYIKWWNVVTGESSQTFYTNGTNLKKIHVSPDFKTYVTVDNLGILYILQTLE
# [8] = cytotoxicity in HEK-293T cells, dose response, cytotoxicity control for TCR NF-kB inhibitor project, luminescence, T-cell screen hits (AID 489026); assay type: functional, cell-based;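 also: cells exposed to compound about 14 hours before the viability readout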
# [9] = molecular target: T3, Small ubiquitin-related modifier 1 (Homo sapiens, UniProt P63165); test: inhibitors of SUMO1 partner interactions, dose response, biochemical, FRET (AID 624383); assay type: functional; details: read-out: IC50_Mean
# T3 sequence (P63165 whole entry): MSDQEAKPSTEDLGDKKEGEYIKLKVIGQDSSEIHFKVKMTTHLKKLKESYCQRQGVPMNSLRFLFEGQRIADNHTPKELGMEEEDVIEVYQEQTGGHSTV
# [10] = molecular target: Heat shock protein HSP 90-alpha (Homo sapiens, UniProt P07900); assay type: functional, organism-based
# [11] = molecular target: T3, Small ubiquitin-related modifier 1; test: inhibitors of SUMO1 peptide binding, dose response, biochemical, fluorescence polarization, uHTS hits (AID 624382); assay type: functional; details: read-out: IC50_Mean
# [12] = growth suppression of beta-catenin-knockout colon cells, dose response, cell-based, HCT116, human colon tumor (AID 1045); assay type: functional;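 also: HCT116 colon tumor cells with beta catenin knocked out; cells exposed to compound for 60 hours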
# [13] = molecular target: Eukaryotic translation initiation factor 4E (Mus musculus, UniProt P63073); test: eIF4E–eIF4G protein interaction inhibitors, dose response, biochemical, TR-FRET (AID 855); assay type: functional;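 also: potency for disrupting eIF4E binding to eIF4GI seen as loss of FRET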
# Chain of Eukaryotic translation initiation factor 4E (P63073 whole entry): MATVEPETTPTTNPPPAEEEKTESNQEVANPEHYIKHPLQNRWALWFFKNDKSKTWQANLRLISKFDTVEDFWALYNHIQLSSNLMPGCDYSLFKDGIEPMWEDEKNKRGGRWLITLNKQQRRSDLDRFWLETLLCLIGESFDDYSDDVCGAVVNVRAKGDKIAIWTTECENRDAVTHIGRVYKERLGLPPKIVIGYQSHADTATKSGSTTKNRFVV
# [14] = molecular target: T4, Ubiquitin-conjugating enzyme E2 N (Homo sapiens, UniProt P61088); assay type: functional;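 also: Dose-response confirmation in a TR-FRET assay detecting UBC13-driven polyubiquitin chain formation, inhibition measured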
# T4 sequence (P61088 whole entry): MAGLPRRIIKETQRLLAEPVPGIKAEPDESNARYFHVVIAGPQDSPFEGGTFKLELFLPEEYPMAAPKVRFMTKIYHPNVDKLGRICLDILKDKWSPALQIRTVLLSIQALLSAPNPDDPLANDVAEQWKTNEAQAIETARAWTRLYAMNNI
# [15] = growth suppression of PTEN-null colon cells, dose response, cell-based, HCT116 PTEN knockout (AID 1047); assay type: functional;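 also: HCT116 colon tumor cells with PTEN knocked out; cells exposed to compound for 60 hours before readout; potency for loss of cell viability measured by luminescence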
# HeLa = test: HeLa cell cytotoxicity, dose response, cytotoxicity control for MITF activator project, CellTiter-Glo luminescence, cherry-pick samples (AID 540259); assay type: functional, cell-based; details: Homo sapiens
# A-375 = test: MITF: Counter assay: A375 proliferation Measured in Cell-Based System Using Plate Reader - 2084-03_Inhibitor_Dose_DryPowder_Activity. [Related pubchem assays (depositor defined):AID488944]; assay type: functional; details: Homo sapiens
# [16] = nonselective inhibitors of cellular cAMP signaling, dose response, counter-screen for MC4R biased antagonist project, cell-based, TR-FRET cAMP detection (AID 602305); assay type: functional;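 also: U2OS cells stimulated with forskolin near its EC80 as the cAMP inducer; potency is for inhibition of forskolin-stimulated cAMP signaling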
# Melanocortin receptor 4 = Melanocortin receptor 4 (Homo sapiens, UniProt P32245); test: MC4R antagonist potency on cAMP, dose response, cell-based, TR-FRET, biased antagonists (AID 602298); assay type: functional;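 also: antagonist potency against agonist-stimulated cAMP production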
# Chain of Melanocortin receptor 4 (P32245 whole entry, the tested form may be a part): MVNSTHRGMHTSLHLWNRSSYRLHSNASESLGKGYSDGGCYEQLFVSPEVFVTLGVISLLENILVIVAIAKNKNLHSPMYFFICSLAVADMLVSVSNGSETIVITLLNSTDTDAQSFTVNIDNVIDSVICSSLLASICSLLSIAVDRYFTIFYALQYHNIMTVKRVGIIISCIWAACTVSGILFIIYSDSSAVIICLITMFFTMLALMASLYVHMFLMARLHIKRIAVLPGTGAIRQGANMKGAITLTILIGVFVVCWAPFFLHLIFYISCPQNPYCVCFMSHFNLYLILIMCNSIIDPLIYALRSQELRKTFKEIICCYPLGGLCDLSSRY
# [17] = molecular target: T5, RNA-binding protein pos-1 (Caenorhabditis elegans, UniProt G5EF15); test: inhibitors of POS-1/mex-3 RNA binding, dose response, biochemical, fluorescence polarization (AID 1964);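 also: purified POS-1 fused to maltose binding protein made in E. coli; potency of compounds blocking POS-1 binding to fluorescent RNA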
# T5 sequence (G5EF15 whole entry): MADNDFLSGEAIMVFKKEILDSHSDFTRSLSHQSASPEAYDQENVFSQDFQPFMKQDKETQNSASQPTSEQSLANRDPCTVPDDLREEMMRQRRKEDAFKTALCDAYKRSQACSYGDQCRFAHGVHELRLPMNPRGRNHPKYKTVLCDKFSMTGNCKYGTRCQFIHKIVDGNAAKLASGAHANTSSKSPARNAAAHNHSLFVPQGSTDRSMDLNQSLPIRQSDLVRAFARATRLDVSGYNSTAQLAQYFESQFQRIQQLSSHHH
# Vero [18] = test: cells; assay type: functional; details: Chlorocebus sabaeus
# [19] = control 3'UTR Renilla luciferase suppression, dose response, counter-screen for Shn3 inhibitor project, cell-based, Clone20-Shn3RL, cherry-picked (AID 624133); assay type: functional
# Genome polyprotein = Genome polyprotein (dengue virus type 2, UniProt P29990); test: Dengue-2 NS5 methyltransferase inhibitors, primary screen, biochemical, confirmation dose response (AID 588689); assay type: functional
# Chain of Genome polyprotein (P29990 2492-3391 limits assumed): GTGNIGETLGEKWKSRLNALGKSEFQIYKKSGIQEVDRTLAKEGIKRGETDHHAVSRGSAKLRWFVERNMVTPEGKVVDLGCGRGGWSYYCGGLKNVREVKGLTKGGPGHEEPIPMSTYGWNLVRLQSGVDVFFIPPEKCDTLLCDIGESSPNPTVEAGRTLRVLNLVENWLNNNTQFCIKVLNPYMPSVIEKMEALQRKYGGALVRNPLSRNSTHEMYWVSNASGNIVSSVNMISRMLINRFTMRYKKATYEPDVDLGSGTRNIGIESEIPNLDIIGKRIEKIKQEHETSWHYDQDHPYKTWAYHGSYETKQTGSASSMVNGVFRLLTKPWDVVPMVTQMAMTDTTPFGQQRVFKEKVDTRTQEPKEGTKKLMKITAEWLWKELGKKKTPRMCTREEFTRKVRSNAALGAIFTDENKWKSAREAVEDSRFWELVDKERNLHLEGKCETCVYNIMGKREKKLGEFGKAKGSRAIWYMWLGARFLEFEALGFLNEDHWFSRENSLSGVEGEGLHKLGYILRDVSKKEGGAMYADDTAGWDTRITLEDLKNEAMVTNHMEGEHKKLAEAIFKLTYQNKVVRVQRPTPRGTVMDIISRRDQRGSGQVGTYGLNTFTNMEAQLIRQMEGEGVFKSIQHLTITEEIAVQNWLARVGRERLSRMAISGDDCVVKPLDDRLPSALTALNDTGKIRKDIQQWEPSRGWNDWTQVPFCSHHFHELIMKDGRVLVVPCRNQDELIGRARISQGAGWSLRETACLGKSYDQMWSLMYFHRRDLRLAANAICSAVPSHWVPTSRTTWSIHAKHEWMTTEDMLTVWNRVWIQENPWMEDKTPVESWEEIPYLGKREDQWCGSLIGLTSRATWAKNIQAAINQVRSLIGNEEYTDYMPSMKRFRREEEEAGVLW
# [20] = Shn3 3'UTR reporter inhibitors, dose response, cell-based, Clone20 osteoblasts, firefly luciferase, cherry-picked (AID 624132); assay type: functional;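 also: firefly luciferase luminescence from reporter carrying the Shn3 3'UTR in osteoblasts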
# [21] = molecular target: T6, Zinc finger protein mex-5 (Caenorhabditis elegans, UniProt Q9XUB2); test: MEX-5/TCR-2 RNA interaction inhibitors, dose response, biochemical, C. elegans, fluorescence polarization (AID 1960)
# T6 sequence (Q9XUB2 whole entry): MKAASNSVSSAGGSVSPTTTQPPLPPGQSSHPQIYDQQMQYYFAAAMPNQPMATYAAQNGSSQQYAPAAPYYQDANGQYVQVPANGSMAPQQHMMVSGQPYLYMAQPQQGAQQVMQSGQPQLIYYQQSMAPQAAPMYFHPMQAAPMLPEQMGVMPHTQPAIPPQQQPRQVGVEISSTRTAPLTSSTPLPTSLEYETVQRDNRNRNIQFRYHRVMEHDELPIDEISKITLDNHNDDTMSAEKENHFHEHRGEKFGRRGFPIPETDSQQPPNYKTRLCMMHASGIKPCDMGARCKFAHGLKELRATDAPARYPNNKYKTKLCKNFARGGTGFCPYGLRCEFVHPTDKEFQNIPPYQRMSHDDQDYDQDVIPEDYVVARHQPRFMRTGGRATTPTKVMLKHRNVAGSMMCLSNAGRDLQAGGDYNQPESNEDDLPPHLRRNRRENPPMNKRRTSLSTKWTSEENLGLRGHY
# [22] = HepG2 cell cytotoxicity, dose response, cytotoxicity control for Shn3 inhibitor project, CellTiter-Glo, cherry-picked (AID 624134); assay type: functional, cell-based
# [23] = molecular target: Mitogen-activated protein kinase 13 (Homo sapiens, UniProt O15264); assay type: functional
# Chain of Mitogen-activated protein kinase 13 (O15264 whole entry): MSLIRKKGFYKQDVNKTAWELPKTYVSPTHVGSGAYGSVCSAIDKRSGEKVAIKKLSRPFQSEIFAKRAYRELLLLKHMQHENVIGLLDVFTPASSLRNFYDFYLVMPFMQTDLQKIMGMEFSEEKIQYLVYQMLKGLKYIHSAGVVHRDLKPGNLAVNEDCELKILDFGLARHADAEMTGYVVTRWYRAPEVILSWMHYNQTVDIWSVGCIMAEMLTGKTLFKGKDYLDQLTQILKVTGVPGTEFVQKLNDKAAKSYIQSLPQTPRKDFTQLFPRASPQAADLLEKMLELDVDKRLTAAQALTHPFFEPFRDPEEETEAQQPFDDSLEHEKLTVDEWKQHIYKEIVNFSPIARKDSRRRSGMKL
# [24] = molecular target: T7, Endoribonuclease toxin MazF (Escherichia coli K-12, UniProt P0AE70); test: fluorescent RNA oligo signal without MazF, dose response, counter-screen for MazEF activator project, biochemical, fluorescence, single-stranded RNase substrate (AID 588502); assay type: functional
# T7 sequence (P0AE70 whole entry): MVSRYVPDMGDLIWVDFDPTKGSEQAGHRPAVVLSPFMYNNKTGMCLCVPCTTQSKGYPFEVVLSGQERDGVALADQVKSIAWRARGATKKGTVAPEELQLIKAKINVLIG
# [25] = molecular target: T7, Endoribonuclease toxin MazF; test: MazF toxin RNase activators, dose response, biochemical, fluorescence, single-stranded RNA substrate, uHTS hits (AID 588481); assay type: functional
# [26] = NIH-3T3 fibroblast cytotoxicity, dose response, cytotoxicity control for antifungal single agent project, cell-based, Alamar Blue, dry powder (AID 602188); assay type: functional
compound,measurement,setting,value
Cc1ccc(C(=O)/C=C/C(=O)c2ccc(C)cc2)cc1,CC50,[1],31.4 µM (active)
same,EC50,[2],3.45 µM (active)
same,EC50,[3],14.9 µM (active)
same,IC50,[4],> 80 µM (inactive)
same,EC50,Streptokinase A,0.653 µM (active)
same,AC50,HEK293,8.72 µM (active)
same,EC50,Streptococcus,9.38 µM (active)
CCC(Cl)CC(Cl)C(Cl)C(Cl)C(Cl)C(C)Cl (configuration not stated),AC50,[5],11.2 µM (inconclusive)
Cc1nc2cc(NCc3nc4ccccc4n3Cc3ccccc3)ccc2n1C,CC50,Vero [6],> 40 µM (active)
CCCCCCCCCCCCCCCC[n+]1ccc(C(N)=O)cc1,IC50,[7],25.7 µM (active)
same,IC50,[8],74.4 µM (inactive)
same,IC50,[9],13.8 µM (active)
same,AC50,[10],8.77 µM (active)
same,IC50,[11],> 66.6 µM (inactive)
same,EC50,[12],6.46 µM (active)
same,IC50,[13],25.1 µM (active)
same,IC50,[14],> 20 µM (inactive)
same,EC50,[15],6.2 µM (active)
COc1ccc(-c2cc(=O)c3cc(C)ccc3[nH]2)cc1,AC50,HeLa,79.9 µM (active)
COc1cc(NCc2ccccc2O)c2ncccc2c1,IC50,[4],> 80 µM (inactive)
CCN(Cc1ccccc1)c1ccccc1,AC50,[5],35.5 µM (inconclusive)
CC(C)=NOc1cc(NC(=O)CCl)cc([N+](=O)[O-])c1,AC50,A-375,15.3 µM (active)
CCN(C(=O)COC(=O)CSc1ccc(C(N)=O)cc1[N+](=O)[O-])C1CCCCC1,IC50,[16],> 64.6 µM (inactive)
same,IC50,Melanocortin receptor 4,> 64.6 µM (inactive)
CCOc1cc(/C=C2/C(=O)ON=C2C)ccc1OCc1ccccc1F,EC50,[17],53.5 µM (active)
same,CC50,Vero [18],> 25 µM (active)
same,AC50,[19],28.2 µM (active)
same,IC50,Genome polyprotein,41.5 µM (active)
same,AC50,[20],6.95 µM (active)
same,CC50,Vero [6],> 40 µM (active)
same,EC50,[21],37.3 µM (inconclusive)
same,AC50,[22],69.3 µM (active)
CCN(CC)C(=O)Oc1ccc2c(=O)c(-c3ccc(OC)cc3)coc2c1,AC50,HeLa,287 µM (active)
NC1C2CN(c3nc4c(cc3F)c(=O)c(C(=O)O)cn4-c3ccc(F)cc3F)CC12 (configuration not stated),Ki,[23],> 7.94 µM (inactive)
CN(CC(=O)Nc1ccccc1Cl)CC(=O)c1c(N)n(Cc2ccccc2)c(=O)n(C)c1=O,EC50,[24],> 99 µM (inactive)
same,EC50,[25],> 99 µM (inactive)
Oc1c(C(c2ccccc2Cl)N2CCCCC2)ccc2cccnc12 (configuration not stated),AC50,[26],5.69 µM (active)
